Data on four compounds can be found in article PMC5773217, “Xylose donor transport is critical for fungal virulence” (PLoS Pathogens, 2018).

What is called Km is the substrate concentration at which the rate is half of its maximum. As usually defined, the kcat is the number of substrate molecules converted per active site and unit of time at saturation.

Data set [1] concerns the target T1, Gmt1 (Cryptococcus neoformans, UniProt J9VRU7).
T1 construct: gene CNAG_05817; full coding region, C-terminal His/V5 tag kept, pYES-DEST52 in S. cerevisiae INVSc1, membrane protein reconstituted into proteoliposomes
Description: uptake into reconstituted proteoliposomes, LC-MS/MS. As to conditions: 37°C. It counts as biochemical.

Data set [2] concerns the target T2, Gmt2 (Cryptococcus neoformans, UniProt J9VY61).
T2 construct: gene CNAG_03426; full coding region, C-terminal His/V5 tag kept, pYES-DEST52 in S. cerevisiae INVSc1, membrane protein reconstituted into proteoliposomes
The description is as above. It counts as biochemical. As to conditions: 37°C.

Data set [3] has as its system O=c1ccn([C@@H]2O[C@H](COP(=O)(O)OP(=O)(O)O[C@H]3OC[C@@H](O)[C@H](O)[C@H]3O)[C@@H](O)[C@H]2O)c(=O)[nH]1. Description: cells, lysate or membranes. As to conditions: antiport, preloaded with 10 mM UMP; 2 min; UDP-Xyl 0-100 μM.
The mark [4] stands for this setting: antiport, preloaded with 30 mM GMP, 16-substrate mixture, 50 μM each, 10 min.
[5] abbreviates: antiport counter-substrate, 30 mM GMP preloaded, GDP-Man outside.

T2 sequence (J9VY61 entry or part of it): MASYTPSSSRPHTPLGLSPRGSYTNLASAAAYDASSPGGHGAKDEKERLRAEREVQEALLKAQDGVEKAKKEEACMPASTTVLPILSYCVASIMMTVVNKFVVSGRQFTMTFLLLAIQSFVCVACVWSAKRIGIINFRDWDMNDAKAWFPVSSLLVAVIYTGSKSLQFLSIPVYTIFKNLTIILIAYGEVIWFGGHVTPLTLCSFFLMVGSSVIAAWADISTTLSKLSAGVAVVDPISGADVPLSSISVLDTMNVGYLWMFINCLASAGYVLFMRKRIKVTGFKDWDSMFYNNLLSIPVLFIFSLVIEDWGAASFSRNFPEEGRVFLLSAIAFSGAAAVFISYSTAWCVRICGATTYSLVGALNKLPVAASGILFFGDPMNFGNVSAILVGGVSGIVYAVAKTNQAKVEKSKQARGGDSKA
T1 sequence (J9VRU7 entry or part of it): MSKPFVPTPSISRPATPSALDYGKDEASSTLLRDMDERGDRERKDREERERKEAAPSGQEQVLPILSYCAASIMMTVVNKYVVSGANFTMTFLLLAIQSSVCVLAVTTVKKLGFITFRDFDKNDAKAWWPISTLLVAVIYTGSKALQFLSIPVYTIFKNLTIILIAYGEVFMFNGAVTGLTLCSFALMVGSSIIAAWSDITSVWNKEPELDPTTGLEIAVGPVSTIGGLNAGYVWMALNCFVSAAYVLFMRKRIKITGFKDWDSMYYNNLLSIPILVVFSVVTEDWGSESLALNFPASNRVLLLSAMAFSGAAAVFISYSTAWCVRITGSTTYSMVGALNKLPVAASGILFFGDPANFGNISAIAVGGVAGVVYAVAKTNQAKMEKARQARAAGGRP

For `Nc1nc2c(ncn2[C@@H]2O[C@H](COP(=O)(O)OP(=O)(O)O[C@H]3O[C@H](CO)[C@@H](O)[C@H](O)[C@@H]3O)[C@@H](O)[C@H]2O)c(=O)[nH]1` [GDP-Man], the “uptake into reconstituted proteoliposomes, LC-MS/MS” value was “Both proteins transported GDP-Man and smaller amounts of other GDP-sugars in exchange for GMP” in data set [1] (setting [4]); “Both proteins transported GDP-Man and smaller amounts of other GDP-sugars in exchange for GMP” in data set [2] (setting [4]).
Consider `Nc1nc2c(ncn2[C@@H]2O[C@H](COP(=O)(O)O)[C@@H](O)[C@H]2O)c(=O)[nH]1` [GMP], for which the “uptake into reconstituted proteoliposomes, LC-MS/MS” value in data set [1] (setting [5]) is “Both proteins transported GDP-Man and smaller amounts of other GDP-sugars in exchange for GMP”; in data set [2] (setting [5]) it was “Both proteins transported GDP-Man and smaller amounts of other GDP-sugars in exchange for GMP”.
For Uxt1 (Cryptococcus neoformans H99), in data set [3], the Michaelis constant (Km) was 1.0 ± 0.2 µM and the kcat came out at 0.9 s⁻¹.
Take Uxt2 (Cryptococcus neoformans H99): in data set [3], the Michaelis-Menten constant (Km) is 2.2 ± 0.5 µM and the kcat turned out to be 0.4 s⁻¹.
